The Ki is the equilibrium dissociation constant of an inhibitor or competing ligand from its target.

Each structure is given as a SMILES string.

The experiment deals with human muscarinic M3 receptor (Homo sapiens (Human), UniProt P20309). The experiment can be described thus: Binding assay on human muscarinic M3 receptor ([3H]-methyl scopolamine displacement). As to conditions: membranes overexpressing human M3 receptor, Ki from IC50 by Cheng-Prusoff, read-out: Binding Affinity to M3 Receptor, Ki. On the procedure: [Experimental Example 1] Binding Assay on Human Muscarinic M3 Receptor
Cell membrane proteins (Perkin Elmer) wherein human muscarinic M3 receptor was overexpressed, [^3H]-methyl scopolamine and test compounds in various concentration were cultured in 0.2 ml of Tris-HCl buffer at 25° C. for 120 minutes. The same was filtered under suction through glass fiber filter (Whatman GF/B), and then the filter was washed 5 times with 1 ml of Tris-HCl buffer. The radioactivity of [^3H]-methyl scopolamine adsorbed on the filter was measured by a liquid scintillation counter. Non-specific binding was evaluated under existence of 5 μM of atropine. Affinity of the compound of the present invention to muscarinic M3 receptor was calculated as the dissociation constant (Ki), which can be calculated from concentration (IC50) of test compounds inhibiting 50% of binding of [^3H]-methyl scopolamine (i.e. labeled ligand) according to Cheng and Prusoff [Cheng and Prusoff, Biochem. Pharmacol., 22, 3099, 1973].

Chain of human muscarinic M3 receptor (P20309 whole entry): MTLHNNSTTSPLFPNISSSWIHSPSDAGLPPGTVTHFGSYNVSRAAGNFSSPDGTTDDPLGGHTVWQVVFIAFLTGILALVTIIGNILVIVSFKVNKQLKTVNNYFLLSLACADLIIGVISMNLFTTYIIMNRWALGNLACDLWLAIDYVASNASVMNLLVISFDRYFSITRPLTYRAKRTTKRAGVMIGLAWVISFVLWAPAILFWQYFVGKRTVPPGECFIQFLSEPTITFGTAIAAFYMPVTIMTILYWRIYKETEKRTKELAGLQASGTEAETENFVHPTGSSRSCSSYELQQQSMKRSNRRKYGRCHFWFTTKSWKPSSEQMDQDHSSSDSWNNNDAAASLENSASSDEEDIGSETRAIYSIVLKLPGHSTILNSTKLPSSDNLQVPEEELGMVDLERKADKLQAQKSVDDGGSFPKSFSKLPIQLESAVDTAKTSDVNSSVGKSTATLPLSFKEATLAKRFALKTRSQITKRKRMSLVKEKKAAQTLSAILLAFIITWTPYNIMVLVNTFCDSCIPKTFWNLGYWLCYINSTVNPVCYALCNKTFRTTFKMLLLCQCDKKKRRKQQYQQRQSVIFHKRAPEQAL

Take `CN1CC[C@@H](COC(=O)Nc2ccccc2-c2cc(Cl)cc(C(F)(F)F)c2)C1` [Example 138, (R)-(1-methylpyrrolidin-3-yl)methyl(3′-chloro-5′-(trifluoromethyl)-[1,1′-biphenyl]-2-yl)carbamate]: the Ki was over 1000 nM.
Regarding `COc1cc(Cl)cc(-c2cc(F)ccc2NC(=O)OC[C@@H]2CCN(C)C2)c1` [Example 139, (R)-(1-methylpyrrolidin-3-yl)methyl(3′-chloro-5-fluoro-5′-methoxy-[1,1′-biphenyl]-2-yl)carbamate], the Ki is 82.7 nM.
For `CN1CC[C@@H](COC(=O)Nc2ccc(F)cc2-c2cc(Cl)cc(C(F)(F)F)c2)C1` [Example 140, (R)-(1-methylpyrrolidin-3-yl)methyl(3′-chloro-5-fluoro-5′-(trifluoromethyl)-[1,1′-biphenyl]-2-yl)carbamate], the Ki was over 1000 nM.
Under `COc1ccc(NC(=O)OC[C@@H]2CCN(C)C2)c(-c2ccc(F)c(Cl)c2)c1` [Example 147, (R)-(1-methylpyrrolidin-3-yl)methyl(3′-chloro-4′-fluoro-5-methoxy-[1,1′-biphenyl]-2-yl)carbamate] stands 77.4 nM; under `CN1CC[C@@H](COC(=O)Nc2ccccc2-c2cccc(CO)c2)C1` [Example 152, (R)-(1-methylpyrrolidin-3-yl)-methyl (3′-(hydroxymethyl)-[1,1′-biphenyl]-2-yl)carbamate], 147 nM; under `CN1CC[C@@H](COC(=O)Nc2ccccc2-c2cccc(C(N)=O)c2)C1` [Example 153, (R)-(1-methylpyrrolidin-3-yl)methyl(3′-carbamoyl-[1,1′-biphenyl]-2-yl)carbamate], over 1000 nM.
The same measure for `CN1CC[C@@H](COC(=O)Nc2ccccc2-c2cccc(N)c2)C1` [Example 154, (R)-(1-methylpyrrolidin-3-yl)methyl(3′-amino-[1,1′-biphenyl]-2-yl)carbamate]: 16.7 nM.
Under `CN1CC[C@@H](COC(=O)Nc2ccccc2-c2cccc(C#N)c2)C1` [Example 155, (R)-(1-methylpyrrolidin-3-yl)methyl(3′-cyano-[1,1′-biphenyl]-2-yl)carbamate] stands over 1000 nM.
In the case of `CN1CC[C@@H](COC(=O)Nc2ccccc2-c2cccc(F)c2F)C1` [Example 158, (R)-(1-methylpyrrolidin-3-yl)methyl(2′,3′-difluoro-[1,1′-biphenyl]-2-yl)carbamate], the Ki amounted to 120 nM.
For `CN1CCC[C@H]1COC(=O)Nc1ccccc1-c1cc(F)cc(F)c1` [Example 161, (S)-(1-methylpyrrolidin-2-yl)methyl(3′,5′-difluoro-[1,1′-biphenyl]-2-yl)carbamate], the Ki was found to be 8.92 nM.
The same measure for `CN1CCC[C@H]1COC(=O)Nc1ccccc1-c1ccc(F)c(F)c1` [Example 162, (S)-(1-methylpyrrolidin-2-yl)methyl(3′,4′-difluoro-[1,1′-biphenyl]-2-yl)carbamate]: 5.34 nM; for `CN1CCC[C@H]1COC(=O)Nc1ccccc1-c1cc(F)c(F)cc1F` [Example 163, (S)-(1-methylpyrrolidin-2-yl)methyl (2′,4′,5′-trifluoro-[1,1′-biphenyl]-2-yl)carbamate]: 16.1 nM; for `CN1CCC[C@H]1COC(=O)Nc1ccccc1-c1ccc(Cl)cc1` [Example 164, (S)-(1-methylpyrrolidin-2-yl)methyl(4′-chloro-[1,1′-biphenyl]-2-yl)carbamate]: 36.9 nM.
With `CN1CCC[C@H]1COC(=O)Nc1ccccc1-c1ccc(Cl)cc1Cl` [Example 167, (S)-(1-methylpyrrolidin-2-yl)methyl(2′,4′-dichloro-[1,1′-biphenyl]-2-yl)carbamate], the inhibition constant Ki came to 67.3 nM.
The same measure for `CN1CCC[C@H]1COC(=O)Nc1ccccc1-c1cccc(O)c1` [Example 168, (S)-(1-methylpyrrolidin-2-yl)methyl(3′-hydroxy-[1,1′-biphenyl]-2-yl)carbamate]: 22.9 nM; for `CN1CCC[C@H]1COC(=O)Nc1ccccc1-c1cccc(C#N)c1` [Example 169, (S)-(1-methylpyrrolidin-2-yl)methyl(3′-cyano-[1,1′-biphenyl]-2-yl)carbamate]: 282 nM.

These data come from patent US9828339B2, “Biphenyl derivatives and methods for preparing same” (DONG-A ST CO., LTD, priority 2013, dated 2017).
